Measured values: US20110166118A1, “NEW TRINEM ANTIBIOTICS AND INHIBITORS OF BETA-LACTAMASES” (LEK PHARMACEUTICALS D.D., priority 2008, published 2011)

How the values were obtained:
[1] = biological target: class A beta-lactamase TEM-1 (Escherichia coli, UniProt P62593); experiment: IC50 determination with nitrocefin, TEM-1; format: biochemical, E. coli; settings: pre-incubated 30 min at 37° C., phosphate buffer pH 7.0, nitrocefin
Protocol: (§1) The IC50 value represents the concentration of inhibitor required to effect a 50% loss of activity of free enzyme. A standard test for the production of beta-lactamase involves use of the chromogenic cephalosporin, nitrocefin.
(§2) Homogeneously purified class A beta-lactamases TEM-1 and SHV-1 from E. coli and class C enzyme P99 from Enterobacter cloaca were employed in the assay.
(§3) All the enzymes and compounds were dissolved in 50 mM phosphate buffer pH 7.0 and all further dilutions were done with the same buffer solution. Enzyme and compound dilutions were pre-incubated for 30 min at 37° C. and in a final volume of 500 μl. Than 10 μl of 5 mM nitrocefin (reporter substrate) was added to the solution and the absorbance at 482 nm was measured during 2 to 5 minutes. The initial rate was calculated for all the different solutions.

[2] = biological target: class A beta-lactamase SHV-1 (Escherichia coli, UniProt P0AD63); experiment: IC50 determination with nitrocefin, SHV-1; format: biochemical, E. coli
Protocol: as §1, §2, §3

[3] = biological target: class C beta-lactamase P99 (AmpC) (Enterobacter cloacae, UniProt P05364); experiment: biochemical; format: biochemical
Protocol: as §1, §2, §3

[4] = tested on: C. freundii Lek 17 (AmpC); experiment: Broth microdilution MIC, S19; format: cell-based; settings: Citrobacter freundii, CAMHB, 35° C., 24 h, duplicate
Protocol: (§4) Stock solutions of the test compounds and Tazocin® were prepared in distilled water according to the CLSI guidelines [Methods for dilution antimicrobial tests for bacteria that grow aerobically. NCCLS document M7-A5; 2000; vol. 19. Clinical and Laboratory Standards Institute, Villanova, Pa.].
(§5) All tested strains and clinical isolates were either purchased from the American Type Culture Collection (ATCC), or from the in-house company culture collection. The tested strains were purely used for the purposes of illustrative example, and are by no means essential for performing the invention.
(§6) The strains were processed according to procedures recommended by ATCC, or procedures that are routinely used. Frozen bacterial stocks were thawed to room temperature, and a few drops were placed on an appropriate blood agar plate. The cultures were subcultured on a fresh Mueller-Hinton agar plate (MHA) the following day, and the subcultures were again incubated overnight.
(§7) Bacterial suspensions with a turbidity equivalent to that of a 0.5 McFarland standard were prepared by suspending a tiny portion of one colony from blood agar plates in 2 mL of sterile saline. […]
(§8) The in vitro activities of the antibiotics were determined by the broth microdilution method as recommended by CLSI guidelines. […]

K. pneumoniae Lek 22 = experiment: Broth microdilution MIC, S18; format: cell-based; settings: Klebsiella pneumoniae, LEK22, CAMHB, 35° C., 24 h, duplicate
Protocol: as §4, §5, §6, §7, §8

[5] = tested on: K. pneumoniae B401 (TEM-10, TEM-12); experiment: Broth microdilution MIC, S17; format: cell-based; settings: Klebsiella pneumoniae, CAMHB, 35° C., 24 h, duplicate
Protocol: as §4, §5, §6, §7, §8

[6] = tested on: E. caerogenes ATCC 29751 (class II); experiment: Broth microdilution MIC, S4; format: cell-based; settings: CAMHB, 35° C., 24 h, duplicate
Protocol: as §4, §5, §6, §7, §8

E. cloacae Lek 24 (AmpC) = experiment: Broth microdilution MIC, S1; format: cell-based; settings: CAMHB, 35° C., 24 h, duplicate
Protocol: as §4, §5, §6, §7, §8

[7] = tested on: K. pneumoniae ATCC 700603 (SHV-18); experiment: Broth microdilution MIC, S8; format: cell-based; settings: Klebsiella pneumoniae, ATCC700603, CAMHB, 35° C., 24 h, duplicate
Protocol: as §4, §5, §6, §7, §8

[8] = tested on: ceftazidime-resistant strains; experiment: Broth microdilution susceptibility assay, overall comparison; format: cell-based; settings: in words, several ceftazidime-resistant strains tested
Protocol: as §4, §5, §6, §7, §8

K. pneumoniae DSA 1461 = experiment: Broth microdilution MIC, S7; format: cell-based; settings: Klebsiella pneumoniae, DSA1461, CAMHB, 35° C., 24 h, duplicate
Protocol: as §4, §5, §6, §7, §8

[9] = tested on: E. cloacae Lek 14, derepressed (AmpC); experiment: Broth microdilution MIC, S2; format: cell-based; settings: CAMHB, 35° C., 24 h, duplicate
Protocol: as §4, §5, §6, §7, §8

C. freundii B318 (CTX-M) = experiment: Broth microdilution MIC, S10; format: cell-based; settings: Citrobacter freundii, CAMHB, 35° C., 24 h, duplicate
Protocol: as §4, §5, §6, §7, §8

C. freundii B271 (SHV-5) = experiment: Broth microdilution MIC, S9; format: cell-based; settings: CAMHB, 35° C., 24 h, duplicate
Protocol: as §4, §5, §6, §7, §8

E. coli B309 = experiment: Broth microdilution MIC, S13; format: cell-based; settings: Escherichia coli, CAMHB, 35° C., 24 h, duplicate
Protocol: as §4, §5, §6, §7, §8

K. pneumoniae Lek 8 = experiment: Broth microdilution MIC, S16; format: cell-based; settings: Klebsiella pneumoniae, LEK8, CAMHB, 35° C., 24 h, duplicate
Protocol: as §4, §5, §6, §7, §8

E. coli B308 = experiment: Broth microdilution MIC, S12; format: cell-based; settings: Escherichia coli, CAMHB, 35° C., 24 h, duplicate
Protocol: as §4, §5, §6, §7, §8

E. faecalis ATCC 29212 = experiment: Broth microdilution MIC, S5; format: cell-based; settings: Enterococcus faecalis, ATCC29212, CAMHB, 35° C., 24 h, duplicate
Protocol: as §4, §5, §6, §7, §8

E. faecium Lek 116 = experiment: Broth microdilution MIC, S15; format: cell-based; settings: Enterococcus faecium, LEK116, CAMHB, 35° C., 24 h, duplicate
Protocol: as §4, §5, §6, §7, §8

E. cloacae 4013 = experiment: Broth microdilution MIC, S3; format: cell-based; settings: Enterobacter cloacae, CAMHB, 35° C., 24 h, duplicate
Protocol: as §4, §5, §6, §7, §8

E. faecalis Lek 112 = experiment: Broth microdilution MIC, S14; format: cell-based; settings: Enterococcus faecalis, LEK112, CAMHB, 35° C., 24 h, duplicate
Protocol: as §4, §5, §6, §7, §8

[10] = tested on: K. pneumoniae B312 (SHV-18); experiment: Broth microdilution MIC, S6; format: cell-based; settings: Klebsiella pneumoniae, CAMHB, 35° C., 24 h, duplicate
Protocol: as §4, §5, §6, §7, §8

[11] = in words, compared to tazobactam

class C beta-lactamase P99 (AmpC), sequence (P05364 21-381): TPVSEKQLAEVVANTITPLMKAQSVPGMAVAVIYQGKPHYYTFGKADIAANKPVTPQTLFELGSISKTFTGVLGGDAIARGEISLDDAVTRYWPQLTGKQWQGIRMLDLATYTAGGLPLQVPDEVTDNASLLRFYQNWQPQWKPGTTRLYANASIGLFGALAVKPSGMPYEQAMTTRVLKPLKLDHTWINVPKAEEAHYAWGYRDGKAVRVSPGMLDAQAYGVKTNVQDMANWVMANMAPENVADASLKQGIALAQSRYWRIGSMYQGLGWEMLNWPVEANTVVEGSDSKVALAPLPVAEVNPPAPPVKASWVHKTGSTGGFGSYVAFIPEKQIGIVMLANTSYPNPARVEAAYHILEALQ
class A beta-lactamase SHV-1, sequence (P0AD63 22-286): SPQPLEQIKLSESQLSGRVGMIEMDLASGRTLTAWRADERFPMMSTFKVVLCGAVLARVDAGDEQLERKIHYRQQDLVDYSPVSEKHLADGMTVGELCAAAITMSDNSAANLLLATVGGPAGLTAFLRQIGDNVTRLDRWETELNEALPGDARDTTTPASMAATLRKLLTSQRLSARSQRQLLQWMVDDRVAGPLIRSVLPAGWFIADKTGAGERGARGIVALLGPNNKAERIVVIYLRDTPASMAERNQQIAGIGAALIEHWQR
class A beta-lactamase TEM-1, sequence (P62593 24-286 limits assumed): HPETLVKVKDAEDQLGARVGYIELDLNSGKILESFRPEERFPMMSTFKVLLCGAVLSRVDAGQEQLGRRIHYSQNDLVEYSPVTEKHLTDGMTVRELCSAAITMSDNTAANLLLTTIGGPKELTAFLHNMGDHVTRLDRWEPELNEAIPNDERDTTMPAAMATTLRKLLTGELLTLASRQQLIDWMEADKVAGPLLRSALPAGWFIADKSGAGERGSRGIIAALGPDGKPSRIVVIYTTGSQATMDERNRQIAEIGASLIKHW

For `CO[C@H]1CCC[C@H]2C1=C(C(=O)O)N1C(=O)[C@H]([C@H](O)C(F)(F)F)[C@@H]21` [LK-178, Sodium (4S,8S,9R,10S)-4-methoxy-10-[1-(S)-hydroxy-2,2,2-trifluoroethyl]-11-oxo-azatricyclo[7.2.0.0^3,8]undec-2-ene-2-carboxylate], the IC50 [1] was 8.4 µM, the IC50 [2] was 1100 nM and the IC50 [3] was 419 nM.

`CO[C@H]1CCC[C@H]2C1=C(C(=O)[O-])N1C(=O)[C@H]([C@H](O)CF)[C@@H]21.[Na+]` [LK-180, Sodium salt of (4S,8S,9R)-4-methoxy-10-(1-(S)-hydroxy-fluoroethyl)-11-oxo-1-azatricyclo-[7.2.0.0 (3,8)]undec-2-ene-2-carboxylic acid] gave an MIC [4] of 8 µg/mL, an MIC (K. pneumoniae Lek 22) of 32 µg/mL and an MIC [5] of 8 µg/mL. The MIC [6] was 16 µg/mL, the “MIC S1” value (E. cloacae Lek 24 (AmpC)) was 4 mg/L and the MIC (E. cloacae Lek 24 (AmpC); Enterobacter cloacae) was 8 µg/mL. For the same molecule, the MIC [7] was 2 µg/mL, the “antibiotic activity compared to Tazocin®” value [8] was “superior to Tazocin®” and the IC50 [1] was 0.5 µM. For the same molecule, the MIC (K. pneumoniae DSA 1461) was 4 µg/mL, the “MIC S2” value [9] was 4 mg/L and the IC50 [2] was 12 nM. The “activity against SHV-1 enzyme as compared to tazobactam” value [2, 11] was “highly potentiated activity”, the MIC (C. freundii B318 (CTX-M)) was 128 µg/mL and the “MIC S9” value (C. freundii B271 (SHV-5)) was 16 mg/L. The MIC (E. coli B309) was 4 µg/mL, the MIC (K. pneumoniae Lek 8) was 16 µg/mL and the MIC (E. coli B308) was 4 µg/mL. For the same molecule, the IC50 [3] was 0.5 nM, the “activity against AmpC enzyme as compared to tazobactam” value [3, 11] was “highly potentiated activity” and the MIC (E. faecalis ATCC 29212) was 4 µg/mL. The MIC (E. faecium Lek 116) was 32 µg/mL, the MIC (E. cloacae 4013) was 64 µg/mL and the MIC (E. faecalis Lek 112) was 4 µg/mL. For the same molecule, the MIC [10] was 8 µg/mL.
